Experimental data as given in article PMC4593063 (Bioorganic & medicinal chemistry letters, 2015).

Tests used:
[1] = 19F NMR hydration study in aqueous solution; type: physicochemical; conditions: pH 7.7, 24 h
[2] = biological target: WT AgAChE (Anopheles gambiae, UniProt Q869C3); experiment: modified Ellman assay, WT AgAChE inhibition; type: biochemical
[3] = tested on: G119S AgAChE; type: biochemical, Anopheles gambiae; conditions: 5g: 60 min incubation; dichlorvos: time not stated
[4] = tested on: susceptible (G3) strain adult An. gambiae; experiment: tarsal contact toxicity, WHO treated paper protocol; type: in vivo, Anopheles gambiae; conditions: 40% mortality at 1000 μg/mL vs propoxur LC50 39 μg/mL
[5] = evaporative weight loss at room temperature; type: physicochemical; conditions: open 1 dram vial, fume hood
[6] = tested on: An. gambiae; experiment: fumigation toxicity assay; set-up: species or system Anopheles gambiae; conditions: in vivo
[7] = tested on: An. gambiae; experiment: injection toxicity; type: in vivo, Anopheles gambiae; conditions: injection into mosquito thorax
[8] = biological target: G119S AgAChE (Anopheles gambiae, UniProt Q869C3, G280S); type: biochemical; conditions: 60 min incubation

Row | SMILES | % hydrated (19F NMR) [1] | % mass lost by evaporation ([5]; 1 day) | % mass lost by evaporation ([5]; 6 days) | % mass lost by evaporation ([5]; 12 days) | Injection mortality at 50 ng/insect [7] | further results
1 | CC(C)(C)c1cccc(C(=O)C(F)(F)F)c1 [Compound 5c] | 88% |  |  |  |  | 
2 | CCC(CC)n1cc(C(=O)C(F)(F)F)cn1 [Compound 5g] | 67% | 9 ± 1% | 33 ± 1% | 68 ± 1% | 83 ± 6% | potency at WT AgAChE fold greater than dichlorvos [2]: 100 fold; ratio of G119S and WT AgAChE IC50 values [3]: roughly 2,500 fold; tarsal contact toxicity fold lower relative to propoxur [4]: ~ 25 fold; % mass lost by evaporation ([5]; 28 days): 99 ± 1%; fumigation toxicity fold less than dichlorvos [6]: > 100 fold
3 | CCC(CC)n1cc(C(=O)C(F)F)cn1 [Compound 9g] |  |  |  |  | 65 ± 4% | WT AgAChE inhibition (IC50) as summarised in text ([2]; incubation time not specified): single digit nanomolar; G119S AgAChE IC50 fold lower than that of dichlorvos [8]: 2 fold; G119S AgAChE IC50 fold lower than that of trifluoromethyl ketone 5g [8]: 13 fold
4 | CC(C)Cn1cc(C(=O)C(F)F)cn1 [Compound 9i] | 22% |  |  |  |  | 
5 | CCC(CC)n1cc(C(=O)CF)cn1 [Compound 10g] |  |  |  |  | 21 ± 8% | WT AgAChE IC50 fold higher than that of propoxur ([2]; 10 minute incubation time): roughly 2 fold
6 | CC(C)Cn1cc(C(=O)CF)cn1 [Compound 10i] | < 5% |  |  |  |  | 
7 | COP(=O)(OC)OC=C(Cl)Cl [dichlorvos] |  | 2 ± 1% | 16 ± 1% | 32 ± 1% |  | % mass lost by evaporation ([5]; 28 days): 51 ± 1%
8 | CNC(=O)Oc1ccccc1OC(C)C [propoxur] |  | 0 ±1% | 0 ± 1% | 1 ± 1% |  | Injection LD50 ([7]; 95% confidence interval in parenthesis): 0.24 (0.20–0.34) ng/insect
